Data published in patent US20070043047A1, “Fungicidal mixtures for controlling rice pathogens” (BASF AKTIENGESELLSCHAFT, priority 2003, published 2007).

Test system: Corticium sasakii (syn. Rhizoctonia solani)
Test: Activity against sheath blight on rice caused by Corticium sasakii (protective spray, pot test)
Format: in vivo
Details: for Efficacy in % of the untreated control: individual active compound, rice, evaluated after 11 days, untreated control 90% infection
Experimental: The active compounds, separately or jointly, were prepared as a stock solution with 0.25% by weight of active compound in acetone or DMSO. 1% by weight of the emulsifier Uniperol® EL (wetting agent having emulsifying and dispersing action based on ethoxylated alkylphenols) was added to this solution, and the solution was diluted with water to the desired concentration.
Use example—Activity against sheath blight on rice caused by Corticium sasakii (syn. Rhizoctonia solani) Pots of rice plants of the cultivar “Tai-Nong 67” were sprayed to runoff point with an aqueous suspension having the concentration of active compound stated below. The next day, oat grains infected with Corticium sasakii were placed into the pots (in each case 5 grains per pot). The plants were then placed in a chamber at 26° C. and maximum atmospheric humidity. After 11 days, the sheath blight on the untreated but infected control plants had developed to such an extent that the infection could be determined visually in %.
Evaluation is carried out by determining the infected plants in percent. These percentages were converted into efficacies.
The efficacy (E) is calculated as follows using Abbot's formula: E=(1−α/β)·100 α corresponds to the fungicidal infection of the treated plants in % and β corresponds to the fungicidal infection of the untreated (control) plants in % An efficacy of 0 means that the infection level of the treated plants corresponds to that of the untreated control plants; an efficacy of 100 means that the treated plants are not infected.
The expected efficacies of the mixtures of active compounds are determined using Colby's formula [R. S. Colby, Weeds 15, 20-22 (1967)] and compared with the observed efficacies.
Colby's formula: E=x+y−x·y/100
E expected efficacy, expressed in % of the untreated control, when using the mixture of the active compounds A and B at the concentrations a and b x efficacy, expressed in % of the untreated control, when using active compound A at the concentration a y efficacy, expressed in % of the untreated control, when using active compound B at the concentration b

| Compound | Efficacy in % of the untreated control (1 ppm in the spray liquor) | Efficacy in % of the untreated control (4 ppm in the spray liquor) | Effectiveness against sheath blight, comparison in words (summary of the test results) |
| --- | --- | --- | --- |
| CC1CCN(c2c(-c3c(F)cccc3Cl)c(Cl)nc3ncnn23)CC1 (single isomer, unassigned) [A] | 0% | 0% | – |
| CC1CCN(c2c(-c3c(F)cccc3Cl)c(Cl)nc3ncnn23)CC1 (single isomer, unassigned) [B] | 0% | 72% | activity comparable to that of compound I |
| CC1CCN(c2c(-c3c(F)cc(F)cc3F)c(Cl)nc3ncnn23)CC1 [I, 5-chloro-7-(4-methylpiperidin-1-yl)-6-(2,4,6-trifluorophenyl)-[1,2,4]tri-azolo[1,5-a]pyrimidine] | 33% | 67% | – |
| CC(Cc1ccc(C(C)(C)C)cc1)CN1C[C@@H](C)O[C@@H](C)C1 (stereo partly drawn) [II, 4-[3-(4-tert-butylphenyl)-2-methylpropyl]-2,6-dimethylmorpholine] | 0% | 0% | – |
